Among the data in patent US5891917A, “Certain acrylonitrile-sulfonamide derivatives” (Sugen, Inc., priority 1997, dated 1999) are IC50 values, retold here.

Experiment [1] has as its system 3T3/IGF-1R cells. Nature of the experiment: IGF-1 Receptor Growth Assay (3T3/IGF-1R). Format: cell-based. The protocol:
IGF-1 Receptor Growth Assay
3T3/IGF-1 R (10% FBS/2 mM glutamine/DMEM)
Cell Plating--Trypsinize and count 3T3/IGF-1R and NIH 3T3 c7 cells. Dilute in growth media to 2000 cells/200 μl and seed flat bottom 96-well plates with 200 μl/well, one plate for two compounds for each cell line.
Compound preparation--Add DMSO to each compound to make 100 mM stock solutions.
Aliquot each compound to 3-4 sterile screw cap tubes and store at -20° C. After thawing, make sure the compound has gone completely back into solution. Throw away after 3 freeze/thaws.
3T3/IGF-1R cells--For each 96-well plate, make 15 ml of 10 nM IGF-1/0.5% FBS/2 mM glutamine/DMEM (30 μl of 5 μM IGF-1/15 ml).
Aliquot 1.5 ml 10 nM IGF-1/0.5% FBS to a sterile tube for each compound to be tested (the first time a compound is tested, use a 15 ml tube in case it is necessary to add extra medium to get it into solution).
Add 3 μl of 100 mM stock of each compound to a tube so 200 μM final. Shake or vortex until it goes into solution. If it is necessary to add additional medium, note the final concentration.
For the DMSO control, prepare 0.5 ml/plate of 0.2% DMSO/10 nM IGF-1/0.5% FBS (2 μl DMSO/ml).
For every two compounds, aliquot 130 μl 10 nM IGF-1/0.5% FBS to wells in columns 2-11 of a 96-well round bottom plate.
Add 260 μl of each compound to four wells in column 12.
Do 2-fold dilutions (130 μl) from columns 12 to 3 on each plate (column 2 will be for the untreated control), mixing thoroughly.
Remove medium from 3T3/IGF-1 R cells, one plate at a time.
Transfer 120 μl from each well on a compound dilution plate to the corresponding well of cells.
Add 120 μl 0.2% DMSO/10 nM IGF-1/0.5% FBS to four wells in column 1.
Add 120 μl 0.5% FBS (without IGF-1) to other four wells in column 1 for negative control.
Refeed--Repeat steps above, adding exactly the same IGF-1 and compound concentration to each well as before.
Analysis of cells--Look at wells with the highest concentrations for each compound to make sure it has not precipitated.
Detection--Follow the steps for fixing and staining described in the SOP for SRB Assays.
Data analysis--Find averages and standard deviations for each set of four OD's.
Using wells in column 2 (treated with IGF-1 but not compound) as 100%, calculate percent of control for each concentration of compound.
Determine the fold difference between the IGF-1-treated and untreated cells. It should be 2-3-fold.
Determine the percent of control for 0.2% DMSO.
Use a curve fit method to graph percent of control vs. log(molar concentration) and determine the IC50.

The target in experiment [2] is T1, FLK-1 receptor (Mus musculus, UniProt P35918).
T1 construct: expressed in transfected cells; host or cells: NIH3T3C7#3 cells (FLK-1 infected)
T1 sequence (P35918 20-1345): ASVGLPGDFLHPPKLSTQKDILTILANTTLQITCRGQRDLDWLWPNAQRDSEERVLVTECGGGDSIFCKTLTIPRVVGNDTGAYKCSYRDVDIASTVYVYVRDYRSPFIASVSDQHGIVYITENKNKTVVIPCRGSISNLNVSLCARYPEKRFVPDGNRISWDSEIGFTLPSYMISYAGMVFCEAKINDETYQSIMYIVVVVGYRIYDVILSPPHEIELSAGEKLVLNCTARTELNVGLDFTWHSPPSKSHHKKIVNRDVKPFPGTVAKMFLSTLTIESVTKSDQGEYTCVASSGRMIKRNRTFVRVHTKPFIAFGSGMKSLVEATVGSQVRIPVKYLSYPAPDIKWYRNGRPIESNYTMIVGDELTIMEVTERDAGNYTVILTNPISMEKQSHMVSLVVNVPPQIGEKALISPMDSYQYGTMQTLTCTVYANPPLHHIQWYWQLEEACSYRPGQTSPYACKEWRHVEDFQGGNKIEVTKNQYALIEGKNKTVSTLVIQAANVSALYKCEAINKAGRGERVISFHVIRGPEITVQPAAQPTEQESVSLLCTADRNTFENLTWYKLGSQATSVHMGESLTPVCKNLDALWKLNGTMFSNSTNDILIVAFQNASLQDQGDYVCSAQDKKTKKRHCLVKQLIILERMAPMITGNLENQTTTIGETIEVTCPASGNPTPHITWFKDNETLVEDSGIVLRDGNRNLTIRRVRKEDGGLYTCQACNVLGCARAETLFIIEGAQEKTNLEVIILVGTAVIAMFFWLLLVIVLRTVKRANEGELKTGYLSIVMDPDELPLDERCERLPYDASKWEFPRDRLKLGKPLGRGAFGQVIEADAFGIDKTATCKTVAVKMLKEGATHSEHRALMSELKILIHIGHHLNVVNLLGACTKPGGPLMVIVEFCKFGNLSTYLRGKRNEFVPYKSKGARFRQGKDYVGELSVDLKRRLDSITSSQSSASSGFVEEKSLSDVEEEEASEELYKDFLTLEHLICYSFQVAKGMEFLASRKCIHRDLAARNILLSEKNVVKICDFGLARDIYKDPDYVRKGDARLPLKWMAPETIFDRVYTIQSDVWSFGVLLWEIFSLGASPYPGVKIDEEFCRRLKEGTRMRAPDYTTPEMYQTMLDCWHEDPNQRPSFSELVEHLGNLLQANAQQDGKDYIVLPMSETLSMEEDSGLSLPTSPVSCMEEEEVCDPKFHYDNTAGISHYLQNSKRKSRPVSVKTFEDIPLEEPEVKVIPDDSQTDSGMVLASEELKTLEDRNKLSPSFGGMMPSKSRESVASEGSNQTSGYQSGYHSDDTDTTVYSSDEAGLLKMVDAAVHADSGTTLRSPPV
Nature of the experiment: ELISA assay to measure kinase activity of FLK-1 receptor in FLK-1/NIH cells. It is filed as cell-based, murine. The following applies: 50 ng/ml VEGF, read-out: ELISA DATA: FLK-1-(Cell.). The text has this: For purposes of this application, although the nomenclature of the human and murine counterparts of the generic "flk-I" receptor differ, they are, in many respects, interchangeable. The murine receptor, FLK1, and its human counterpart, KDR, share a sequence homology of 93.4% within the intracellular domain. Likewise, murine FLK-I binds human VEGF with the same affinity as mouse VEGF, and accordingly, is activated by the ligand derived from either species. Millauer et al., 1993, Cell 72:835-846; Quinn et al., 1993, Proc. Natl. Acad. Sci. USA 90:7533-7537. FLK-1 also associates with and subsequently tyrosine phosphorylates human RTK substrates (e.g., PLC-γ or p85) when coexpressed in 293 cells (human embryonal kidney fibroblasts).
ELISA Assay To Measure Kinase Activity Of FLK-I Receptor In FLK-I/NIH Cells
An ELISA assay was conducted to measure the kinase activity of the FLK-I receptor and more specifically, the inhibition or activiation of protein tyrosine kinase activity on the FLK-I receptor.
k. N1H3T3C7#3 Cells (FLK-I infected cells);
1. Coat Corning 96-well elisa plates with 1.0 ug per well Cappel Anti-rabbit IgG antibody in 0.1M Na2CO3 pH 9.6. Bring final volume to 150 ul per well. Coat plates overnight at 4° C. Plates can be kept up to two weeks when stored at 4° C.
2. […]
Background: In an ELISA, binding on a coated surface is turned into a signal by an enzyme label.

The mark [3] stands for this setting: read-out: Growth Data: 3T3/IGF-1R-0.5% FBS.
Where [4] appears, read: read-out: Growth Data: 3T3/IGF-1R-10% FBS.

The structures appear in SMILES notation. Where two headings read alike, the source gives them in different places.

On to `CC(C)c1cc(/C=C(\C#N)S(=O)(=O)Cc2cccc(C(F)(F)F)c2)cc(C(C)C)c1O` [Compound 736], for which the IC50 worked out at 14.7 µM in experiment [1] (setting [3]) and 74 µM in experiment [1] (setting [4]).

On to `CC(C)c1cc(/C=C(\C#N)S(=O)(=O)c2ccccn2)cc(C(C)C)c1O` [Compound 747], for which, in experiment [2], the IC50 is over 50 µM.

For `CC(C)c1cc(/C=C(\C#N)S(=O)(=O)c2ccc(F)cc2)cc(C(C)C)c1O` [Compound 741, (E)-3-(3,5-Diisopropyl-4-hydroxyphenyl)-2-(4-fluorophenylsulfonyl)acrylonitrile], the IC50 in experiment [1] (setting [3]) worked out at 35 µM; in experiment [1] (setting [4]), 91 µM.

Take `Cc1cc(/C=C(\C#N)S(=O)(=O)c2ccccc2)cc(C)c1O` [Compound 748]: the IC50 in experiment [2] is under 50 µM.

Take `CC(C)c1cc(/C=C(\C#N)S(=O)(=O)c2ccccc2)cc(C(C)C)c1O` [Compound 731]: the IC50 in experiment [1] (setting [3]) is 25 µM; in experiment [1] (setting [4]), 92 µM.

`CC(C)c1cc(/C=C(\C#N)S(=O)(=O)NCc2ccccc2)cc(C(C)C)c1O` [Compound 732]: the IC50 in experiment [1] (setting [3]) was found to be 9.2 µM; in experiment [1] (setting [4]), 79 µM.
